Test results published in US20170349592A1, “POLYMORPHIC SUBSTANCE OF YONKENAFIL HYDROCHLORIDE, PREPARATION METHOD THEREFOR, AND COMPOSITION AND USE THEREOF” (Yangtze River Pharmaceutical Group Co., Ltd., priority 2014, published 2017).

Assay: Standing of the crystalline form at room temperature (polymorph stability)
Assay type: physicochemical
Details: standing at the condition of room temperature for one week; monohydrochloride

| SMILES | stability of the crystalline form (polymorphic conversion) |
| --- | --- |
| CCCn1cc(C)c2c(=O)[nH]c(-c3cc(S(=O)(=O)N4CCN(CC)CC4)ccc3OCC)nc21.Cl [A-type polymorphic substance of yonkenafil hydrochloride] [2-[2-ethoxy-5-(4-ethylpiperazine-1-sulfonyl)phenyl]-5-methyl-7-n-propyl-3,7-dihydropyrrolo[2,3-d]pyrimidin-4-one monohydrochloride] | more stable than the B-type polymorphic substance of yonkenafil hydrochloride |
| CCCn1cc(C)c2c(=O)[nH]c(-c3cc(S(=O)(=O)N4CCN(CC)CC4)ccc3OCC)nc21.Cl [B-type polymorphic substance of yonkenafil hydrochloride] [2-[2-ethoxy-5-(4-ethylpiperazine-1-sulfonyl)phenyl]-5-methyl-7-n-propyl-3,7-dihydropyrrolo[2,3-d]pyrimidin-4-one monohydrochloride] | can be converted into the A-type polymorphic substance of yonkenafil hydrochloride |
